IC50 data for one compound are collected here from PMC11285368, “Chasing Red Herrings: Palladium Metal Salt Impurities Feigning KRAS Activity in Biochemical Assays” (Journal of Medicinal Chemistry, 2024).

By IC50 is commonly meant the concentration needed to halve the response being measured.

Assay type in all cases: biochemical
One test has as its target biotinylated GST (Schistosoma japonicum, UniProt P08515). Put plainly: Control assay (AlphaScreen Shortcut). The procedure: This assay was developed to identify compounds that interfere with the assay format using AlphaLISA Glutathione Acceptor and AlphaScreen Streptavidin Donor beads. The assay was performed as described above using biotinylated GST as bridging reagent instead of KRAS^G12D and CRAF mix.
On the technique in general: Alpha assays give light when donor and acceptor beads are brought close together.

For test [1], the target named is T1, KRAS^G12D(GTP)::CRAF (Homo sapiens, UniProt P01116, G12D).
T1 construct: KRAS^G12D 1–169, N-terminal 6His-tag, C-terminal avi-tag (Xtal BioStructures, Inc.); 6His (N); purchased Xtal BioStructures, Inc. (KRAS); Viva Biotech Ltd. (CRAF)
T1 sequence (P01116 1-169 isoform P01116-2 G12D): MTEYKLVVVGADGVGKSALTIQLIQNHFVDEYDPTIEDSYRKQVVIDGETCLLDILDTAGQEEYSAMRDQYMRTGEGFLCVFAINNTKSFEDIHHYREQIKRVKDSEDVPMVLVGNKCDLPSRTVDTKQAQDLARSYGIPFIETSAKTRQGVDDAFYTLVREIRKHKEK
Description: KRAS^G12D(GTP)::CRAF TR-FRET. To be noted: Fluorescence; GST-CRAF^(51–131) and KRAS^G12D(1–169)-biotin. The procedure: Plates were kept at room temperature in a darkened incubator.
(§1) IC50 values were calculated and analyzed with Boehringer Ingelheim’s MEGALAB IC50 application using a 4 parametric logistic model.

The target of test [2] is T1, KRAS^G12D(GTP)::CRAF. Put plainly: KRAS^G12D(GTP)::CRAF AlphaScreen. The method, then:
The proteins have been used at these given final assay concentrations:
Test compounds dissolved in DMSO were dispensed onto assay plates (Proxiplate 384 PLUS, white, PerkinElmer; 6008289) using an Access Labcyte Workstation with the Labcyte Echo 555. For the chosen highest assay concentration of 100 μM, 150 nl of compound solution were transferred from a 10 mM DMSO compound stock solution. A series of 11 5-fold dilutions per compound was transferred to the assay plate, and compound dilutions were tested in duplicates. DMSO was added as backfill to a total volume of 150 nl. The assay was run on a fully automated robotic system in a darkened room below 100 Lux. […] After 60 min incubation time 5 μL of AlphaScreen bead mix in assay buffer were added into columns 1–23. Bead mix consisted of AlphaLISA Glutathione Acceptor Beads (PerkinElmer, cat. no. AL109) and Alpha-Screen Streptavidin Donor Beads (perkinElmer cat. no. 6760002) in assay buffer at a final assay concentration of 10 μg/mL each. Plates were kept at room temperature in a darkened incubator. After an additional 60 min incubation time the signal was measured on a PerkinElmer Envision HTS Multilabel Reader using the AlphaScreen specs from PerkinElmer.
as §1

Read-outs that look alike come from different tables or passages of the source.

Chain of biotinylated GST (P08515 whole entry): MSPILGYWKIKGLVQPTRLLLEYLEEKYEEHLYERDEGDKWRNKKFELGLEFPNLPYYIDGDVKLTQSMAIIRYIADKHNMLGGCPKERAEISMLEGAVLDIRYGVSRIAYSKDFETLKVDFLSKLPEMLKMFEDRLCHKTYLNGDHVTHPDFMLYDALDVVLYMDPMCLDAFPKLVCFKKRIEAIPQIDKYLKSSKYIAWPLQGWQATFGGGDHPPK

Turning to `[Cl][Pd][Cl]` [PdCl2, Palladium(II) chloride], the IC50 at biotinylated GST (Batch 1, read-out: Control assay IC50) was 5.8 ± 0.7 µM; on biotinylated GST (Luminescence, biotinylated GST, read-out: IC50, Control assay) it was 5.8 ± 0.7 µM; on KRAS^G12D(GTP)::CRAF [1], 40.5 ± 19.2 µM; on KRAS^G12D(GTP)::CRAF [2] (Batch 1, read-out: KRAS^G12D(GTP)::CRAF AlphaScreen IC50) it was 0.7 ± 0.2 µM; on KRAS^G12D(GTP)::CRAF [2] (Luminescence, GST-CRAF^(1–303) and KRAS^G12D(1–169)-biotin, read-out: IC50, KRAS^G12D(GTP)::CRAF AlphaScreen), 0.7 ± 0.2 µM.
